Source: US12611470B2, “Chromatin-opening element for stable long term gene expression” (CZ Biohub SF, LLC, priority 2019, dated 2026)

Assays:
Transduced P19 cells = experiment: Epigenetic effector experiments: rescue of GFP expression in silenced transduced cells; format: cell-based, mouse; conditions: for reactivation of GFP expression: all examined populations, range of concentrations; for silenced cells rescued: RSV promoter-only construct, 24 h treatment
Description: (§1) GFP expression is rescued by treatment with DNA methylation inhibitor 5-aza-cytidine (5-aza) in day 18 UCOE-RSV cells from the lentiviral silencing experiment. Cells were replica plated at day 16, specified concentrations of 5-aza were introduced 24 hours later (with exception of control), and cells were passaged and assayed via flow cytometry 24 hours after chemical introduction for % GFP+ cells. Data is reported as mean±SD from three biological replicates.
as §1, with “HDAC” for “DNA methylation”, “trichostatin A (TSA)” for “5-aza-cytidine (5-aza)”, “24” for “18”, “22,” for “16,”, “TSA” for “5-aza”, “mean f SD” for “mean±SD”
Cells were replica plated at day 16, specified concentrations of 5-aza were introduced 24 hours later (with exception of control), and cells were passaged and assayed via flow cytometry 24 hours after chemical introduction for % GFP+ cells. Data is reported as mean±SD from three biological replicates. In the graph, data is shown from left to right for each construct: no treatment, 2 μM 5-aza, 10 μM 5-aza. […] Cells were replica plated at day 22, specified concentrations of TSA were introduced 24 hours later (with exception of control), and cells were passaged and assayed via flow cytometry 24 hours after chemical introduction for % GFP+ cells. Data is reported as mean f SD from three biological replicates. In the graph, data is shown from left to right for each construct: no treatment, 0.05 μM TSA, 0.1 μM TSA. […] Cells were replica plated at day 19, treated with 0.1 μM TSA or 10 μM 5-aza (with exception of control) 24 hours later, and cells were passaged and assayed via flow cytometry 24 hours after chemical introduction for % GFP+ cells. Data is reported as mean f SD from three biological replicates. In the graphs for FIG. 6C and FIG. 6D, the data is shown from left to right for each construct: no treatment, 0.1 μM TSA, 10 μM 5-aza.
Replica-plated cell populations were treated with varying concentrations of 5-aza-2′-deoxycytidine (Sigma-Aldrich, A3656) or Trichostatin A (Sigma-Aldrich, T1952) 24 hours after passaging. TSA was purchased as a readymade 5 mM solution in DMSO, which was then diluted to a 0.05 μM or 0.1 μM concentration in P19 growth media. 5 mg of 5-aza-2′-deoxycytidine was dissolved in 1 mL of 1:1 acetic acid: water to make a 21.9 mM stock solution, which was then diluted in P19 growth media to 2 μM or 10 μM. Cells were assayed through flow cytometry after 24 hours. […]

P19 cells = experiment: Standalone (intrinsic) promoter activity screen, UCOE-GFP construct lacking the Ef1a promoter; format: cell-based, mouse; conditions: promoterless GFP construct, after two weeks of antibiotic selection
Text: A schematic representation of the expression construct in which the candidate region (UCOE) is inserted upstream of the GFP gene in the absence of any other promoter sequences as used is shown as an inlay. As positive controls, the Ef1α promoter, the 2.2 kB A2UCOE sequence, and the 1.2 kB reverse orientation sequence 3′UCOE, were cloned into the same reporter construct as the candidate sequences. The percent GFP positive in the population was monitored as a metric for gene expression by flow cytometry analysis with each passage (% GFP). Stably transfected cells were assayed for % GFP+ and median fluorescent intensity (normalized to Ef1a promoter control). Data is reported as mean±SD from biological duplicates.
P19 cells were seeded at 25,000 cells/well in 12 well plates. 24 h after seeding, cells were transfected using Lipofectamine™ 2000 transfection reagent (Thermo Fisher) according to the manufacturer's instructions using 500 ng DNA/well and 2.5 μL of Lipofectamine per well. 24 hours after transfection, selection was initiated with 1 μg/mL puromycin (Sigma-Aldrich) in regular growth media and, from then on, cells were passaged at 1:15 or 1:20 dilutions whenever cells were 80-90% confluent (every 2-3 days) with frequent refreshing of puromycin-containing media to clear dead cells. After approximately 14-16 days, remaining cells were assumed to be stably transfected and were changed to regular growth media to initiate silencing experiments. During silencing experiments, the P19 cells were passaged every 2-3 days and re-seeded at 15,000 cells/well.
Fluorescence data throughout silencing experiments was obtained using a MACSQuant® VYB flow cytometer (Miltenyi Biotec). EGFP was measured through the 488-nm laser and 525/50 nm band pass filter. Flow cytometry data was analyzed using the FlowJo™ single cell flow cytometry analysis software (Tree Star). After being gated for singlets and viability, GFP+ gates in FlowJo were drawn such that a non-transfected or non-transduced P19 cell population was at 1% GFP+. Median values reported are of cells within the GFP+ gate, both % GFP positive and median are reported with the standard deviation of biological replicates.
As A2UOCE dually functions as a protective regulatory element and a universal promoter, the candidate UCOEs were further screened for standalone promoter activity. A similar experiment as the aforementioned screen was performed using a similar expression construct that lacked the Ef1a promoter. This construct was used to assess whether the candidate sequences could drive reporter expression and act as stand-alone functional promoters. Candidates were compared to the positive control of the EF1a promoter, which had ˜70% GFP+ cells after two weeks of antibiotic selection, showing a distinct positive population in the fluorescence histogram. The GFP+ gate (i.e., flow cytometry fluorescence threshold for GFP+ cells) was set to encompass 1% of untransfected cells and then applied to all samples. […] Such a result appears as a bimodal distribution on a histogram, with a peak below the gate threshold (i.e., GFP negative cell population) and a peak above it (i.e., the distinct GFP positive population mentioned above). […] In this study, a % GFP+ of at least 50% is considered to reflect the existence of a second population in the histograms, and thus a binary indicator of promoter function. […] The median GFP intensity of the GFP+ population was used a measure of the strength of the promoter, and normalized to the Ef1a positive control as shown in FIG. 2C.
This aligns with previous observations that the RNPA2B1 promoter is much stronger than that of CBX3 (Zhang, F., et al. (2010) Mol Ther, 18, 1640-1649 (7)). However, the RNPA2B1 promoter in A2UCOE is only 30% as strong as the EF1α promoter. […]

Molecule	reactivation of GFP expression (Transduced P19 cells)	silenced cells rescued (Transduced P19 cells; highest dose of 5-aza, day 18 cells)	silenced cells rescued (Transduced P19 cells; highest dose of TSA, day 24 cells)	% GFP+ cells (P19 cells)	% GFP+ cells, representative flow cytometry example (P19 cells; one representative example)
Nc1ncn([C@@H]2O[C@H](CO)[C@@H](O)[C@H]2O)c(=O)n1 [Candidate 5-aza, 5-azacytidine]	dose-dependent increase in % GFP positive cells	63%	–	–	–
CC(/C=C/C(=O)NO)=C\[C@@H](C)C(=O)c1ccc(N(C)C)cc1 [TSA, trichostatin A]	dose-dependent recovery of GFP expression	–	about 25%	–	–
EF1a promoter: Elongation Factor 1 promoter, positive control for promoter activity (nucleic acid, Rous sarcoma virus) DNA: AATGTAGTCTTATGCAATACTCTTGTAGTCTTGCAACATGGTAACGATGAGTTAGCAACATGCCTTACAAGGAGAGAAAAAGCACCGTGCATGCCGATTGGTGGAAGTAAGGTGGTACGATCGTGCCTTATTAGGAAGGCAACAGACGGGTCTGACATGGATTGGACGAACCACTGAATTCCGCATTGCAGAGATATTGTATTTAAGTGCCTAGCTCGATACAATAAACGCCATTTGACCATTCACCACATTGGTGTGCACC	–	–	–	~70%	74.2%
